Results taken from US7939626B2, “Chemoselective ligation” (The Regents of the University of California, priority 2000, dated 2011).

What was measured:
Jurkat cells [1] = test: Growth of Jurkat cells incubated with ManAz for three days (cell counting); assay type: cell-based, human; conditions: ManAz at a range of concentrations, ManNAc as negative control, FIG. 1
Protocol: Jurkat cell cultures. Cell cultures of Jurkat were maintained in RPMI 1640 media (Gibco Laboratories, Grand Island, N.Y.) supplemented with 5% fetal bovine serum (FBS, Hyclone, Logan, Utah), 50 units/mL of penicillin and 50 μg/mL of streptomycin (Mediatech, Hemdon, Va.), in a humidified 5% CO2 atmosphere at 37° C. Cell densities were determined using a Coulter Counter-Z2 (Coulter, Miami, Fla.),
Treatment of cells with mannosamine derivatives. Cultures of Jurkat cells were seeded at a density of 1.25×10^5 cells/mL into 12-well tissue culture plates in a total volume of 2 mL of culture media. The appropriate amount of each sugar (1, 3, 20, 36, 37) in a solution of PBS was added and the cells were incubated for 3 d. Control wells containing no added sugar were also seeded with cells and incubated.
(§1) Toxicity was ascertained by incubating Jurkat cells, a human T-cell lymphoma cell line, with ManAz for three days at a range of concentrations, using the natural substrate ManNAc (1) as a negative control. Each experiment was performed in triplicate. The cells were counted to determine whether addition of 20 was inhibiting cell growth.

Jurkat cells [2] = test: Propidium iodide assay, percentage of viable cells by flow cytometry; assay type: cell-based, human; conditions: Jurkat cells after 3 days with ManAz, FIG. 2
Protocol: Flow cytometry. Flow cytometry analysis was performed on a Coulter EPICS® XL-MCL cytometer (Coulter, Miami, Fla.) using a 488 nm argon laser. At least 10^4 viable cells were analyzed from each sample. Dead cells were excluded from the analysis using forward/side scatter gating.
Propidium iodide assay. After growth in the presence of the appropriate sugars, cells were pelleted (3000×g, 2 min), washed twice with 1 mL avidin staining buffer (0.1% NaN3, 0.1% FBS in PBS, pH 7.4) and diluted to a volume of 300 μL. Immediately prior to flow cytometry analysis, 10 μL of propidium iodide solution (1 mM in PBS) was added to each sample.
as §1

cell surface = test: Side-by-side comparison with the cell surface ketone reaction; assay type: cell-based; conditions: same reagent concentrations
Description: This may reflect either a faster reaction at the cell surface, or more efficient metabolism of azidosugar 20 as compared to the ketosugar. The azide has a major advantage over the ketone in that its reactivity is unique in a cellular context due its abiotic nature. Ketones, by contrast, abound inside cells in the form of metabolites such as pyruvic acid and oxaloacetate. It should be noted that the modified Staudinger reaction is chemically orthogonal to ketone ligations and should allow tandem modification of cell surfaces with the two chemistries.

Jurkat cells [3] = test: Cell surface disulfide bond reduction: free sulfhydryl groups detected with iodoacetylbiotin and FITC-avidin; assay type: cell-based, human; conditions: 1 mM phosphine, 1 hour, relative to cells exposed to iodoacetylbiotin alone, FIG. 9
Protocol: To satisfy the requirement of chemical orthogonality, both participants in the reaction may not engage functional groups endogenous to cells. Triarylphosphines are mild reducing agents, which raises the possibility of disulfide bond reduction as an undesirable side reaction. We addressed this issue by incubating Jurkat cells with triarylphosphine, an intermediate in the synthesis of 47, and quantifying the appearance of free sulfhydryl groups on the cell surface with iodoacetylbiotin and FITC-avidin (FIG. 9). Following incubation, cells were pelleted washed with PBS, and diluted to a volume of 240 μl. Samples were combined with 60 μl of a solution of iodoacetylbiotin (5 mM in PBS), After incubation in the dark at room temperature for 1.5 hrs, the cells were washed with buffer, stained with FITC-avidin, and analyzed by flow cytometry.
After 1 hour in the presence of 1 mM triarylphosphine, no detectable increase in free sulfhydryl groups was observed relative to cells exposed to iodoacetylbiotin alone (FIG. 9). In a positive control experiment, Jurkat cells were incubated with the trialkylphosphine TCEP (1 mM, 1 hour, room temperature), a commercial disulfide bond reducing agent. […] Therefore, triarylphosphines are essentially unreactive toward disulfide bonds under these conditions, rendering ligation with azides the predominant pathway for reactivity.

Jurkat cells [4] = test: Competition with ManLev metabolism: cell surface ketone detection with biotin hydrazide and FITC-avidin, flow cytometry; assay type: cell-based, human; conditions: 3 days, increasing concentrations of acetylated ManAz (Ac4MA) with acetylated ManLev (Ac4ML), FIG. 3
HeLa cells = test: Cell surface azide expression and growth after the modified Staudinger reaction in HeLa cells
Jurkat cells [5] = test: Cell surface azide expression: reaction with biotinylated phosphine, FITC-avidin staining, flow cytometry; assay type: cell-based, human

## [N-]=[N+]=NCC(=O)N[C@@H]1C(O)O[C@H](CO)[C@@H](O)[C@@H]1O (stereo partly drawn) [compound 20, N-azidoacetylmannosamine]
Jurkat cells [1]
  number of cells observed after 3 days of growth: a decrease in the number of cells observed after 3 days of growth in a dose-dependent fashion
Jurkat cells [2]
  percentage of viable cells: No significant change in the percentage of viable cells
Cell surface
  fluorescence of azidosugar metabolism plus phosphine reaction versus ketosugar metabolism plus hydrazide reaction: two-fold higher fluorescence

## O=C(O)CCP(CCC(=O)O)CCC(=O)O [TCEP]
Jurkat cells [3]
  free sulfhydryl groups on the cell surface: dramatic increase in free cell-surface sulfhydryl groups

## CC(=O)OC[C@H]1OC(OC(C)=O)[C@@H](NC(=O)CN=[N+]=[N-])[C@@H](OC(C)=O)[C@@H]1OC(C)=O (stereo partly drawn) [compound 36, 1,3,4,6-Tetra-O-acetyl-N-azidoacetylmannosamine]
Jurkat cells [4]
  fluorescence from ketone labeling (competition with acetylated ManLev): proportionately decreasing fluorescence
HeLa cells; HeLa cells cultured for an additional 3 days after the reaction
  growth rate after the modified Staudinger reaction: no change in growth rate
HeLa cells; HeLa cells, compared with the Jurkat result
  fluorescence after azidosugar incubation and phosphine reaction: responded similarly
Jurkat cells [5]; 40 μM acetylated 3 for 3 days, then 2 mM compound 5 for 3 hours
  biotin moieties accumulated on the cell surface: approximately 4.5 million
Jurkat cells [5]; 40 AM acetylated 20 for 3 days, then 2 mM compound 47 for 3 hours
  biotin moieties accumulated on the cell surface: approximately 4.5 million
Jurkat cells [5]; acetylated 20 for 3 days, then 1 mM compound 47 for 1 hour, calibrated with biotinylated beads
  biotin moieties accumulated on the cell surface: approximately 850,000 biotin moieties
Jurkat cells [5]; acetylated azidosugar 20 μM for 3 days, then compound 47 (1 mM in PBS, pH 7.4) 1 hr at room temperature, versus untreated cells, FIG. 5
  fluorescence (biotin moieties on the cell surface, FITC-avidin): dramatic increase in fluorescence

## tunicamycin [reference compound]
Jurkat cells [5]; tunicamycin present during incubation with the azidosugar
  fluorescence signal with tunicamycin added during azidosugar incubation: reduced
